Test results as given in patent US10968212B2 (ACCUTAR BIOTECHNOLOGY INC., priority 2016, dated 2021).

Assays:
MCF-7 tumors = experiment: Tumor growth inhibition in MCF-7 breast cancer-derived mouse xenograft model; type: in vivo; conditions: 10 mg/day, i.p., 3 weeks, BALB/c nude mice with MCF-7 tumors; FIG. 14A
Experimental: For the tumor growth inhibition study, female BALB/c nude mice (with supplemental 17-β estradiol) bearing MCF-7 tumors (mean tumor volume 211 mm^3) were i.p. treated with Accutar-153 (10 mg/day) in vehicle or by vehicle only for 3 weeks. Body weight and tumor volume (tumor volume=[length×width^2]/2) were monitored twice weekly. At the end of study, plasma, tumor tissues and organs (brain, liver, kidney) for each animal were collected for further analysis.
Female BALB/c nude mice (supplemented with 17-β estradiol) bearing MCF-7 tumors (mean tumor volume was 211 mm^3) were treated with the compound:
[drawing 197] (10 mg/day, i.p.) in vehicle, or by vehicle only, for 3 weeks. Body weight and tumor volume (tumor volume=[length×width^2]/2) were monitored twice weekly. At the end of study, plasma, tumor tissues and organs (brain, liver, kidney) for each animal were collected for further analysis. The tumor growth inhibition studies were performed twice.

Estrogen Receptor alpha = biological target: T1, Estrogen Receptor alpha (Homo sapiens, UniProt P03372); experiment: Estrogen Receptor alpha degradation in MCF-7 cells (immunoblot, 20 hours); type: cell-based; conditions: concentrations from 1 nM to 1 μM, FIGS. 3A and 3B
T1 construct: endogenous in cells; host or cells: MCF7 or LTED cells
T1 sequence (P03372 1-595): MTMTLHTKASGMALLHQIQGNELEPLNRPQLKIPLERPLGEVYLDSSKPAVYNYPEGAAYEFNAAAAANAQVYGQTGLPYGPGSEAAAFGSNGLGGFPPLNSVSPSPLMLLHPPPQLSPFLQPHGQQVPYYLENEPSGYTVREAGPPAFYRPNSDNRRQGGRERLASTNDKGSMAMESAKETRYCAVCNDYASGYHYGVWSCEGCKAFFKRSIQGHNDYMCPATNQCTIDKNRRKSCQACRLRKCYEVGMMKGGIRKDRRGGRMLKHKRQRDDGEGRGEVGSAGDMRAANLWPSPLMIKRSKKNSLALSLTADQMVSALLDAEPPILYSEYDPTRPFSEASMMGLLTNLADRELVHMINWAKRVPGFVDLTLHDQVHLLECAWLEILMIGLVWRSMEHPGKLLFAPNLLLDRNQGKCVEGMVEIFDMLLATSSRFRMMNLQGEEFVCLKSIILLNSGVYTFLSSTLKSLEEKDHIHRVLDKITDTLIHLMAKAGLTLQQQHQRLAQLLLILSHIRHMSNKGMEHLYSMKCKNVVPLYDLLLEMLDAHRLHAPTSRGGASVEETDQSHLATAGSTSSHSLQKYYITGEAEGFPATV
Experimental: MCF-7 cells were maintained in high glucose DMEM (Corning cellgro, 15-013-CM), supplemented with 10% FBS, 1× L-Glutamine (29.2 mg/mL) and 1× Penicillin Streptomycin (10,000 I.U./mL Penicillin; 10,000 μg/mL Streptomycin; Corning, 30-009-CI). The resulting MCF-7 cells were plated into a 24-well plate at 1×10^5 cells/well, and the following day, compound was added to the cell medium at various concentrations. After treating the cell medium with compound, the cell plates were incubated for 20 hours at 37° C. Upon cooling, cells were lysed by addition of SDS loading buffer. The resulting cell lysates were subjected to immunoblotting by standard protocol. with primary antibodies of mouse anti-human ERα monoclonal antibody (Santa Cruz Biotechnology Inc., #SC-8002) and 1:1000 goat anti-human actin polyclonal antibody (Santa Cruz Biotechnology Inc. #SC-1616). Western blot results visualized using picoLUCENT™ PLUS-HRP ECL (G Biosciences, 786-165) and LI-CORC digit imaging system.

SMILES: CC/C(=C(\c1ccc(O)cc1)c1ccc(OCCNC(=O)CCCCCCC(=O)N[C@H](C(=O)N2C[C@H](O)C[C@H]2C(=O)NCc2ccc(-c3scnc3C)cc2)C(C)(C)C)cc1)c1ccccc1
- tumor weight, treatment group versus control group (MCF-7 tumors): significant decrease in tumor weight

SMILES: CC/C(=C(\c1ccccc1)c1ccc(OCCN(C)CCCCCCC(=O)N[C@H](C(=O)N2C[C@H](O)C[C@H]2C(=O)NCc2ccc(-c3scnc3C)cc2)C(C)(C)C)cc1)c1ccccc1 [Compound 4]
- degradation of Estrogen Receptor alpha compared with the control (Estrogen Receptor alpha): resulted in degradation of Estrogen Receptor alpha when compared with the control
